Data published in the METLIN SMRT retention time set (Domingo-Almenara et al. 2019).

Experiment: gradient 5% acetonitrile 3 min, to 50% in 2 min, to 85% in 15 min, held 3 min, 100 µL/min
Details: column: Zorbax Extend-C18 2.1 x 50 mm; eluents: water / acetonitrile, 0.1% formic acid
Method in brief: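 In both positive and negative ionization mode, a quadrupole time-of-flight mass spectrometer coupled to HPLC analyzed pure standards run in mixtures of ~100 molecules. The Zorbax Extend-C18 column (2.1 × 50 mm, 1.8 μm) was operated at 100 μL/min with water and acetonitrile, each containing 0.1% formic acid. The dead volume was 40 μL and the dwell volume 900 μL. Retention time came from adduct peaks that were computationally picked and individually inspected by hand.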

RP-LC retention time [s]	SMILES
984	COc1ccc(-n2ncc3c(=O)n(Cc4nc(-c5cccc(OC)c5)no4)cnc32)cc1
599	Cc1cc(C)n(-c2ccnc(N3CCC(C(=O)NCc4ccncc4)CC3)n2)n1
853	CC(C)NC(=O)N1CCc2c(c(-c3nc(-c4cccc(F)c4)no3)nn2C)C1
928	O=c1n(Cc2cccc(Br)c2)nc2ccc(S(=O)(=O)N3CCCC3)cn12
654	Cc1oc(-c2[nH]ncc2C(=O)N2CCCCC2)cc1S(=O)(=O)N1CCOCC1
888	CC(C)Cn1c(=O)c(C(=O)NCCCc2ccccc2)nc2cccnc21
595	Cc1nnc2cc(N3CCN(C(=O)Nc4ccc5c(c4)OCCO5)CC3)cnn12
740	CCOc1ccc2c(n1)CCN(C(=O)NCC(C)C)C2
852	CCN1c2ccc(Cl)cc2C(=O)NC12CCN(C(=O)Nc1cccc(OC)c1)CC2
758	COC(=O)Cn1c(C2CC(=O)N(c3cccc(C)c3)C2)nc2ccccc21 (stereo unspecified)
691	O=C(NC1CC1)c1nnn(-c2ccccc2)c1-c1cccnc1
772	COc1ccc(-c2nnc(-c3cc(S(=O)(=O)NCC(=O)O)ccc3Cl)o2)cc1
837	CC(C)NC(=O)N1CCC(N2C(=O)C3(CCCC3)C2c2ccccc2)CC1 (stereo unspecified)
663	COc1ccc(-c2cc3c(=O)n(CC(=O)N4CCN(c5ccccn5)CC4)nc(C)n3n2)cc1
707	Cc1ccc(-c2ncccc2CNS(=O)(=O)c2ccc(F)cc2)cc1
794	O=C(CCc1ccc2cc[nH]c2c1)NCc1ccccc1
748	Cc1nnc(-c2ccc3ccn(CC(=O)N4CCCCC4)c3c2)o1
1160	Cc1cccc(-c2nc(C3CCN(S(=O)(=O)c4ccccc4F)CC3)no2)c1
729	CCOCCCNC(=O)CCC(=O)N1CC2CCCN2c2ccccc21 (stereo unspecified)
1010	COc1ccc(S(=O)(=O)N2CC=C(c3cn(C)c4ncccc34)CC2)cc1Cl
670	CN(CCNC(=O)CN1C(=O)CSc2cccn2-c2ccccc21)C1CCCCC1
665	CCn1c(N2CCCC(C(=O)NCC3CCN(Cc4cc(C)ccc4C)CC3)C2)cc(=O)n(C)c1=O (stereo unspecified)
1110	O=C(NCc1ccccc1C(F)(F)F)C1CCCN(c2nccnc2Sc2ccccc2)C1 (stereo unspecified)
687	Cc1cc(=O)n(CC(=O)N2CCCc3ccccc32)c(N2CCOCC2)n1
774	CCOC(=O)NCCS(=O)(=O)N1CCN(c2ccccc2F)CC1
1080	CCCn1c(=O)c(C)nc2cc(-c3noc(-c4ccsc4)n3)ccc21
838	COc1cccc(C2C(C(=O)NCCC(C)C)c3ccccc3C(=O)N2C2CC2)c1 (stereo unspecified)
645	C#CCSc1nc(=O)n2ccc(C)cc2n1
596	COc1ccc(C2(C(=O)N3CCCC(CN4CCOCC4)CC3)CC2)cc1 (stereo unspecified)
1140	Cc1ccc(Oc2nccnc2N2CCCC(C(=O)NCc3ccc(C)c(C)c3)C2)cc1 (stereo unspecified)

The next lines start with the compound.

SMILES	RP-LC retention time [s]
O=C(C1=CN(c2ccc3c(c2)OCO3)c2ccccc2S1(=O)=O)N1CCCCC1	780
Cc1ccc(-c2cc3c4nnc(SCC(=O)NCCC(C)C)n4ccn3n2)cc1C	942
O=S(=O)(Nc1cccc(F)c1)c1ccc2nncn2c1	657
Cn1cc(-c2ccncc2)cc1C(=O)NCc1cccc(F)c1	630
COc1ccc(-c2nc(Cc3noc(Cc4cccc(F)c4)n3)c(C)o2)cc1	1000
O=C(Nc1ccc(-c2nc3ccccc3o2)cc1)c1ccc(S(=O)(=O)N2CCCC2)cc1	1000
O=C(CCc1ccccc1)Nc1c(-c2ccccc2)nc2ccccn12	663
CCN(CC)c1nc2ccsc2c(=O)n1CCC(=O)NCc1ccc(F)cc1	831
CC(C)CC(=O)Nc1ccc(S(=O)(=O)N2CCCC2c2nc(-c3ccc(Cl)cc3)no2)cc1 (stereo unspecified)	1160
CCn1ccc2sc(C)c(C(=O)NCCCN3CCCC3=O)c2c1=O	594
CCCCN1CCN(C(=O)c2cc(CC)n3nc(-c4ccccn4)cc3n2)CC1	614
COc1ccc(-c2noc(CN3N=NC4C(=O)N(c5ccc6c(c5)CCC6)C(=O)C43)n2)cc1OC (stereo unspecified)	949
O=C(Nc1ccc(F)cc1)N1CCC(CCNC(=O)C2(c3ccccc3)CC2)CC1	897
CSc1cccc(NC(=O)C2CCN(S(=O)(=O)c3ccc4[nH]c(=O)ccc4c3)CC2)c1	784
CCc1noc(CN2N=C(C(=O)N3CCC(C)CC3)S(=O)(=O)c3ccc(C)cc32)n1	954
CCOC(=O)c1sc(NC(=O)c2cn(C)nc2OC)nc1C	767
O=C(Cn1nc2nc(Nc3ccc(F)cc3)ccn2c1=O)NCC1CCCO1 (stereo unspecified)	637
CCc1cc(=O)n(CC(=O)Nc2ccc(C)c(Cl)c2)c(N2CCOCC2)n1	871

SMILES	RP-LC retention time [s]
O=C(Nc1ccc(F)cc1F)c1cc2n(n1)CCCC2	912
CCOc1ccc(NC(=O)N2c3ccccc3CC2c2nc(C3CC3)no2)cc1 (stereo unspecified)	982
O=C1COc2ccc(Cl)cc2N1Cc1nc(-c2ccc(N3CCOCC3)cc2)no1	1000
O=C(Nc1cnc(-c2ccc(Cl)cc2)nc1)C1CCCO1 (stereo unspecified)	910
CCN1c2ccc(F)cc2C(=O)NC12CCN(C(=O)c1cc(F)cc(F)c1)CC2	1030
CN1C(=O)c2cccn2CC1CNC(=O)c1ccnn1C (stereo unspecified)	591
COc1ccc(CN2CCC3(CC2)CC(O)CCO3)cc1C (stereo unspecified)	606
COc1ccc(C(=O)N2C[C@@H](Oc3cccnc3)C[C@H]2C(N)=O)c(OC)n1	572
Cc1sc(C)c(S(=O)(=O)NCc2ccccc2Cl)c1-c1cc(C(F)(F)F)on1	653
Cc1cc(C)cc(NC(=O)C2CCCN2S(=O)(=O)c2ccc3c(c2)CCCC(=O)N3)c1 (stereo unspecified)	835
COc1ccc(N2CCN(C(=O)c3cn4nc(OC)ccc4n3)CC2)cc1	683
O=C(NCC1CCCO1)c1nc2ccccn2c1-c1ccc(Cl)cc1 (stereo unspecified)	785
Cc1ccc(CNC(=O)N2CC(N(CC3CC3)C3CCOCC3)C2)cc1	582
COc1cccc(-c2ccc(=O)n(CCc3nc(-c4ccc(F)cc4)no3)n2)c1	981
CC(CCNC(=O)C1CCN(c2nc3cccnc3s2)CC1)N1CCCC1 (stereo unspecified)	580
Cc1ccccc1CNC(=O)c1cc2n(n1)CC(C)(C(=O)NCc1ccccc1)N(C)C2=O (stereo unspecified)	769
C/C(=C\c1csc(C)n1)C1C[C@@H]2O[C@]2(C)CCC[C@H](C)[C@H](O)[C@@H](C)C(=O)C(C)(C)[C@@H](O)CC(=O)N1 (stereo partly specified)	668
CCC(=O)N1CCc2cc(C)c(S(=O)(=O)NCc3ccco3)cc21	664
